Patent US9908896B2, “P38 and JNK MAPK inhibitors for the treatment and prophylaxis of degenerative diseases of the nervous system” (ALLINKY BIOPHARMA, priority 2014, dated 2018)

Legend:
[1] = target: T1, recombinant activated p38alpha (Homo sapiens, UniProt Q16539); assay: in vitro kinase assay p38 (ADP-Glo); format: biochemical; conditions: 100 μM ATP; for inhibition at 1 µM: 1 μM compound; for inhibition at 10 µM: 10 μM compound
T1 construct: purchased ProQinase
Description: (§1) Purified recombinant activated p38alpha (10 nM)(ProQinase) was preincubated 10 minutes at 30° C. with the compound of interest at concentrations between 1 and 100 μM in duplicate in a final volume of 30 μl of kinase buffer (Hepes 60 mM pH 7.5, MgCl2 3 mM, MnCl2 3 mM, sodium orthovanadate 3 μM, DTT 1.2 mM). After preincubation, peptide substrate (SignalChem #P03-58) and ATP were added to a final concentration of 10 μM and 100 μM respectively, and then incubated 40 minutes at 30° C. for the kinase reaction. Phosphorylation was analysed with ADP-Glo™ (Promega #V9101) and emitted luminescence was measured with BMG Fluostar microplate reader.

[2] = tested on: TNF-α secretion by a human monocytic cell line, THP-1; assay: Inhibition of TNF-α secretion by LPS-stimulated THP-1 cells (ELISA); format: cell-based; conditions: LPS-stimulated THP-1, TNF-α; for inhibition at 1 µM: 1 μM compound, read-out: % of inhibition at 1 μM, THP1; for inhibition at 10 µM: 10 μM compound, read-out: % of inhibition at 10 μM, THP1
Description: Thp1-Inhibition of TNF-α Secretion by a Human Monocytic Cell Line, THP-1
THP-1 cells, growing in log phase, were collected by centrifugation and resuspended in RPMI 1640 (Sigma Aldrich), to a final cell concentration of 2×10^6 cells/ml. Cells were plated into 24-well plates (BD Biosciences). Dilutions of compounds in dimethyl sulfoxide (DMSO) were added to the culture to a final concentration M. The final DMSO concentration was 0.5%. The cells […] suspensions were preincubated with compounds for 1 h at 37° C. in a 5% CO2 humidified atmosphere before the addition of LPS (Sigma Aldrich, L2654) to a g/ml. After that, cells were incubated for 3 h followed final concentration of […] by centrifugation to pellet cells. Cell supernatants were stored at 4° C. until human analysis for TNF-α content. TNF-α levels were determined by ELISA (TNF Biotrak, GE Healthcare) following the manufacturer's directions. The percentage inhibition was calculated for each compound concentration tested, and the IC50 was calculated for each compound.

[3] = tested on: recombinant activated JNK; assay: in vitro kinase assay JNK (ADP-Glo); format: biochemical; conditions: 100 μM ATP; for % of inhibition at 1 μM, JNK: 1 μM compound; for % of inhibition at 10 μM, JNK: 10 μM compound
Description: as §1, with “JNK” for “p38alpha”, “nM) (ProQinase)” for “nM)(ProQinase)”, “analyzed” for “analysed”

T1 sequence (Q16539 whole entry): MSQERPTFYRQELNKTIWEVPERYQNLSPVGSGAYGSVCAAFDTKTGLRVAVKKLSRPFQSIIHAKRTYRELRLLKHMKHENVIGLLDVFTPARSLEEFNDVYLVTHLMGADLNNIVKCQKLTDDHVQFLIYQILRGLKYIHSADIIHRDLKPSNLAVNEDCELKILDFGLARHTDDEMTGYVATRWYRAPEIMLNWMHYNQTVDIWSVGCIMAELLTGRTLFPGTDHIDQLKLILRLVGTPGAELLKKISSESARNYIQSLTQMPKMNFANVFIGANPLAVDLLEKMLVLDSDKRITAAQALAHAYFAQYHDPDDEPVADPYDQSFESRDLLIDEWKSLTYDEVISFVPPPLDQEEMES

In the case of `CCOc1ccc(Nc2nc3nonc3nc2N2CCC(Oc3ccc(Cl)cc3)CC2)cc1` [Comp 2], the inhibition at 1 µM [1] is reported as 41%, the inhibition at 10 µM [1] is reported as 87% and the inhibition at 1 µM [2] is reported as 42%. The inhibition at 10 µM [2] was 69%, the “% of inhibition at 1 μM, JNK” value [3] was 36% and the “% of inhibition at 10 μM, JNK” value [3] was 91%.
`CCCOc1cccc(Nc2nc3nonc3nc2N2CCC(Oc3ccc(Cl)cc3)CC2)c1` [Comp 3] showed an inhibition at 1 µM [1] of 23%, an inhibition at 10 µM [1] of 100% and an inhibition at 1 µM [2] of 37%. For the same compound, the inhibition at 10 µM [2] was 58%, the “% of inhibition at 1 μM, JNK” value [3] was 31% and the “% of inhibition at 10 μM, JNK” value [3] was 96%.
Compound `CCOc1cccc(Nc2nc3nonc3nc2N2CCC(Oc3ccc(Cl)cc3)CC2)c1` [Comp 4] has an inhibition at 1 µM [1] of 25%, an inhibition at 10 µM [1] of 68% and an inhibition at 1 µM [2] of 19%. For the same compound, the inhibition at 10 µM [2] was 41%, the “% of inhibition at 1 μM, JNK” value [3] was 31% and the “% of inhibition at 10 μM, JNK” value [3] was 74%.
`CCCOc1ccc(Nc2nc3nonc3nc2N2CCC(Sc3ccc(C)cc3)CC2)cc1` [Comp 5] gave an inhibition at 1 µM [1] of 41%, an inhibition at 10 µM [1] of 100% and an inhibition at 1 µM [2] of 44%. The inhibition at 10 µM [2] was 65%, the “% of inhibition at 1 μM, JNK” value [3] was 37% and the “% of inhibition at 10 μM, JNK” value [3] was 97%.
With `CCOc1ccc(Nc2nc3nonc3nc2N2CCC(Sc3ccc(C)cc3)CC2)cc1` [Comp 6] the inhibition at 1 µM [1] was 32%, the inhibition at 10 µM [1] was 95% and the inhibition at 1 µM [2] was 28%. For the same compound, the inhibition at 10 µM [2] was 39%, the “% of inhibition at 1 μM, JNK” value [3] was 35% and the “% of inhibition at 10 μM, JNK” value [3] was 91%.
With `CCCOc1cccc(Nc2nc3nonc3nc2N2CCC(Sc3ccc(C)cc3)CC2)c1` [Comp 7] the inhibition at 1 µM [1] was 19%, the inhibition at 10 µM [1] was 87% and the inhibition at 1 µM [2] was 21%. For the same compound, the inhibition at 10 µM [2] was 33%, the “% of inhibition at 1 μM, JNK” value [3] was 34% and the “% of inhibition at 10 μM, JNK” value [3] was 101%.
For `CCOc1cccc(Nc2nc3nonc3nc2N2CCC(Sc3ccc(C)cc3)CC2)c1` [Comp 8], the inhibition at 1 µM [1] was 16%, the inhibition at 10 µM [1] was 64% and the inhibition at 1 µM [2] was 17%. For the same compound, the inhibition at 10 µM [2] was 37%, the “% of inhibition at 1 μM, JNK” value [3] was 32% and the “% of inhibition at 10 μM, JNK” value [3] was 55%.
`CCCOc1ccc(Nc2nc3nonc3nc2N2CCN(Cc3ccc(Cl)cc3)CC2)cc1` [Comp 9] gave an inhibition at 1 µM [1] of 23%, an inhibition at 10 µM [1] of 68% and an inhibition at 1 µM [2] of 27%. The inhibition at 10 µM [2] was 39%, the “% of inhibition at 1 μM, JNK” value [3] was 26% and the “% of inhibition at 10 μM, JNK” value [3] was 51%.
`CCOc1ccc(Nc2nc3nonc3nc2N2CCN(Cc3ccc(Cl)cc3)CC2)cc1` [Comp 10] gave an inhibition at 1 µM [1] of 25%, an inhibition at 10 µM [1] of 52% and an inhibition at 1 µM [2] of 19%. The inhibition at 10 µM [2] was 31%, the “% of inhibition at 1 μM, JNK” value [3] was 30% and the “% of inhibition at 10 μM, JNK” value [3] was 50%.
`Clc1ccc(OC2CCN(c3nc4nonc4nc3Nc3ccc4c(c3)CCO4)CC2)cc1` [Comp 11] was tested, and the inhibition at 1 µM [1] was 21%, the inhibition at 10 µM [1] was 105% and the inhibition at 1 µM [2] was 30%. For the same compound, the inhibition at 10 µM [2] was 50%, the “% of inhibition at 1 μM, JNK” value [3] was 24% and the “% of inhibition at 10 μM, JNK” value [3] was 74%.
For `Clc1ccc(OC2CCN(c3nc4nonc4nc3Nc3ccc4occc4c3)CC2)cc1` [Comp 12], the inhibition at 1 µM [1] was 15%, the inhibition at 10 µM [1] was 95% and the inhibition at 1 µM [2] was 45%. The inhibition at 10 µM [2] was 51%, the “% of inhibition at 1 μM, JNK” value [3] was 24% and the “% of inhibition at 10 μM, JNK” value [3] was 90%.
